Results on three molecules are retold here after EP0726261A1, “Herbidical 1,2,4 thiadiazoles” (American Cyanamid Company, priority 1995, dated 1996).

What all share (format): in vivo
Experiment [1] concerns Triticum aestivum. The experiment is described as follows: Preemergence herbicidal activity (Example 67). Details: herbicide rating, TRZAW: scale not given here. As to conditions: pre, 800 g/ha; for herbicide rating, TRZAW: rated about 1-3 weeks after treatment. As to the method:
(§1) Herbicidal evaluation of compounds of the invention is conducted on the following plant species:
(§2) The soil is a prepared horticultural substrate containing 30% peat, 20% volcanic clay, 30% bark residues and 20% polyamide/styromull in a 1:3 mixture with loamy sand. Test solutions are prepared by dissolving the test compound in acetone containing 0.5% of an alkylphenol/ethylene oxide condensate under the trademark, TRITON® X-155, and diluting with water as needed. The test solutions are applied as a spray to the 3-6 week old seedling plants at dose rates corresponding to 800g/ha in a volume equivalent to 400 L/ha. A pneumatic spraying device employing a Teejet nozzle SS 8002E operating at 3 bar is used for a predetermined time. After spraying, the treated plants are placed on greenhouse benches and cared for in a manner commensurate with conventional greenhouse practice. After 10-21 days, the treated plants are evaluated and rated according to the rating system provided below.
(§3) The soil surface is then sprayed with test solutions as described in the postemergence evaluation hereinabove. After spraying, the treated cups are placed on greenhouse benches and cared for in the manner commensurate with conventional greenhouse practice. About 1-3 weeks after treatment the cups are evaluated and rated according to the rating system provided hereinabove.

Experiment [2] has as its system Hordeum vulgare. The experiment is described as follows: Preemergence herbicidal activity (Example 67). Also on record: herbicide rating, HORVW: scale not given here. The note with it: pre, 800 g/ha; for herbicide rating, HORVW: rated about 1-3 weeks after treatment. How it is done:
as §1, §2, §3

Experiment [3] relates to Alopecurus myosuroides. Put plainly: Preemergence herbicidal activity (Example 67). Also on record: herbicide rating, ALOMY: scale not given here. The note with it: pre, 800 g/ha; for herbicide rating, ALOMY: rated about 1-3 weeks after treatment. As to the method:
as §1, §2, §3

In experiment [4] the test system is Setaria viridis. The experiment is described as follows: Preemergence herbicidal activity (Example 67). Details: herbicide rating, SETVI: scale not given here. The note with it: pre, 800 g/ha; for herbicide rating, SETVI: rated about 1-3 weeks after treatment. As to the method:
as §1, §2, §3

Experiment [5] concerns Abutilon theophrasti. Put plainly: Preemergence herbicidal activity (Example 67). As to conditions: pre, 800 g/ha; for herbicide rating, ABUTH: rated about 1-3 weeks after treatment. How it is done:
as §1, §2, §3

The subject of experiment [6] is Amaranthus retroflexus. The experiment is described as follows: Preemergence herbicidal activity (Example 67). As to conditions: pre, 800 g/ha; for herbicide rating, AMARE: rated about 1-3 weeks after treatment. As to the method: as §1, §2, §3
In experiment [7] the test system is Chenopodium album. The experiment is described as follows: Preemergence herbicidal activity (Example 67). As to conditions: pre, 800 g/ha; for herbicide rating, CHEAL: rated about 1-3 weeks after treatment. How it is done:
as §1, §2, §3

Experiment [8] relates to Galium aparine. Put plainly: Preemergence herbicidal activity (Example 67). The note with it: pre, 800 g/ha; for herbicide rating, GALAP: rated about 1-3 weeks after treatment. How it is done: as §1, §2, §3
The test system of experiment [9] is Helianthus annuus. Put plainly: Preemergence herbicidal activity (Example 67). As to conditions: pre, 800 g/ha; for herbicide rating, HELAN: rated about 1-3 weeks after treatment. How it is done: as §1, §2, §3
In experiment [10] the test system is Ipomoea hederacea. The experiment is described as follows: Preemergence herbicidal activity (Example 67). As to conditions: pre, 800 g/ha; for herbicide rating, IPOHE: rated about 1-3 weeks after treatment. How it is done:
as §1, §2, §3

Experiment [11] has as its system Veronica persica. Put plainly: Preemergence herbicidal activity (Example 67). The note with it: pre, 800 g/ha; for herbicide rating, VERPE: rated about 1-3 weeks after treatment. As to the method:
as §1, §2, §3

Experiment [12] deals with Zea mays. The experiment is described as follows: Preemergence herbicidal activity (Example 67). As to conditions: pre, 800 g/ha; for herbicide rating, ZEAMX: rated about 1-3 weeks after treatment. As to the method: as §1, §2, §3
The subject of experiment [13] is Abutilon theophrasti. The experiment is described as follows: Postemergence herbicidal activity (Example 67). The note with it: pos, 800 g/ha; for herbicide rating, ABUTH: rated after 10-21 days. As to the method: as §1, §2
For experiment [14], the system named is Alopecurus myosuroides. The experiment is described as follows: Postemergence herbicidal activity (Example 67). The note with it: pos, 800 g/ha; for herbicide rating, ALOMY: rated after 10-21 days. How it is done: as §1, §2
The subject of experiment [15] is Amaranthus retroflexus. The experiment is described as follows: Postemergence herbicidal activity (Example 67). As to conditions: pos, 800 g/ha; for herbicide rating, AMARE: rated after 10-21 days. As to the method:
as §1, §2

In experiment [16] the test system is Chenopodium album. The experiment is described as follows: Postemergence herbicidal activity (Example 67). The note with it: pos, 800 g/ha; for herbicide rating, CHEAL: rated after 10-21 days. As to the method: as §1, §2
The subject of experiment [17] is Galium aparine. The experiment is described as follows: Postemergence herbicidal activity (Example 67). The note with it: pos, 800 g/ha; for herbicide rating, GALAP: rated after 10-21 days. As to the method:
as §1, §2

The subject of experiment [18] is Helianthus annuus. The experiment is described as follows: Postemergence herbicidal activity (Example 67). The note with it: pos, 800 g/ha; for herbicide rating, HELAN: rated after 10-21 days. As to the method: as §1, §2
Experiment [19] relates to Hordeum vulgare. Put plainly: Postemergence herbicidal activity (Example 67). As to conditions: pos, 800 g/ha; for herbicide rating, HORVW: rated after 10-21 days. How it is done: as §1, §2
For experiment [20], the system named is Ipomoea hederacea. Put plainly: Postemergence herbicidal activity (Example 67). As to conditions: pos, 800 g/ha; for herbicide rating, IPOHE: rated after 10-21 days. How it is done:
as §1, §2

The subject of experiment [21] is Setaria viridis. The experiment is described as follows: Postemergence herbicidal activity (Example 67). As to conditions: pos, 800 g/ha; for herbicide rating, SETVI: rated after 10-21 days. How it is done: as §1, §2
Experiment [22] has as its system Triticum aestivum. Put plainly: Postemergence herbicidal activity (Example 67). The note with it: pos, 800 g/ha; for herbicide rating, TRZAW: rated after 10-21 days. How it is done:
as §1, §2

For experiment [23], the system named is Veronica persica. Put plainly: Postemergence herbicidal activity (Example 67). The note with it: pos, 800 g/ha; for herbicide rating, VERPE: rated after 10-21 days. As to the method:
as §1, §2

Experiment [24] has as its system Zea mays. The experiment is described as follows: Postemergence herbicidal activity (Example 67). As to conditions: pos, 800 g/ha; for herbicide rating, ZEAMX: rated after 10-21 days. How it is done:
as §1, §2

Regarding `CCCCc1nsc(C(=O)N[C@@H](C)c2ccccc2)n1` [Example 32], the “herbicide rating, TRZAW” value in the experiment on Triticum aestivum [1] is listed as 0; in the experiment with Triticum aestivum [22], 3 (16-29%). Besides, the “herbicide rating, HORVW” value with Hordeum vulgare [2] is on record as 0; in the experiment with Hordeum vulgare [19], 2 (6-15%). The “herbicide rating, ALOMY” value in the experiment on Alopecurus myosuroides [3] is 0; in the experiment on Alopecurus myosuroides [14], 2 (6-15%). In addition, the “herbicide rating, SETVI” value with Setaria viridis [4] is 0; in the experiment on Setaria viridis [21] it was 7 (80-90%). Further, the “herbicide rating, ABUTH” value is 0 with Abutilon theophrasti [5] and 5 (45-64%) in the experiment on Abutilon theophrasti [13]. The “herbicide rating, AMARE” value in the experiment with Amaranthus retroflexus [6] is 0; with Amaranthus retroflexus [15], 3 (16-29%). The “herbicide rating, CHEAL” value with Chenopodium album [7] and in the experiment on Chenopodium album [16] was 5 (45-64%) in each case. Moreover, the “herbicide rating, GALAP” value with Galium aparine [8] is given as 0; with Galium aparine [17], 6 (65-79%). Further, the results for the “herbicide rating, HELAN” value with Helianthus annuus [9] and in the experiment on Helianthus annuus [18] were 0 and 5 (45-64%), respectively. The “herbicide rating, IPOHE” value is given as 0 in the experiment with Ipomoea hederacea [10] and 5 (45-64%) in the experiment on Ipomoea hederacea [20]. Also, the “herbicide rating, VERPE” value is 5 (45-64%) with Veronica persica [11] and 0 with Veronica persica [23]. Besides, the “herbicide rating, ZEAMX” value in the experiment with Zea mays [12] and in the experiment on Zea mays [24] was 0 each time.

As for `C[C@H](NC(=O)c1nc(-c2cccc(F)c2)ns1)c1ccccc1` [Example 45, (S)-3-(3-Fluorophenyl)-[1,2,4]thiadiazole-5-carboxylic acid, 1-(phenylethyl)amide], the “TRZ AW rating” value in the experiment with Triticum aestivum [1] was 0; with Triticum aestivum [22], 3 (16-29%). Besides, the “HOR VW rating” value in the experiment on Hordeum vulgare [2] is listed as 0; with Hordeum vulgare [19], 4 (30-44%). The entries for the “ALO MY rating” value in the experiment on Alopecurus myosuroides [3] and with Alopecurus myosuroides [14] were 3 (16-29%) and 4 (30-44%), respectively. Moreover, the results for the “SET VI rating” value with Setaria viridis [4] and with Setaria viridis [21] were 0 and 6 (65-79%), respectively. Besides, the “ABU TH rating” value with Abutilon theophrasti [5] was 0; in the experiment on Abutilon theophrasti [13] it was 8 (91-99%). The “AMA RE rating” value with Amaranthus retroflexus [6] is 0; with Amaranthus retroflexus [15], 3 (16-29%). Also, the figures for the “CHE AL rating” value in the experiment on Chenopodium album [7] and with Chenopodium album [16] were 0 and 4 (30-44%), respectively. In addition, the “GAL AP rating” value in the experiment with Galium aparine [8] is given as 0; in the experiment on Galium aparine [17] it was 6 (65-79%). In addition, the “HEL AN rating” value with Helianthus annuus [9] is reported as 0; with Helianthus annuus [18] it was 8 (91-99%). Also, the “IPO HE rating” value is 0 in the experiment on Ipomoea hederacea [10] and 8 (91-99%) in the experiment on Ipomoea hederacea [20]. Further, the “VER PE rating” value in the experiment with Veronica persica [11] is given as 8 (91-99%); with Veronica persica [23], 7 (80-90%). Also, the “ZEA MX rating” value with Zea mays [12] is recorded as 0; in the experiment on Zea mays [24] it was 4 (30-44%).

Take `C[C@H](NC(=O)c1nc(-c2ccc(Cl)cc2)ns1)c1ccccc1` [Example 27, (S)-3-(4-Chlorophenyl)-[1,2,4]thiadiazole-5-carboxylic acid, 1-(phenylethyl) amide]: the results for the “herbicide rating, TRZAW” value with Triticum aestivum [1] and with Triticum aestivum [22] were 0 and 2 (6-15%), respectively. The “herbicide rating, HORVW” value with Hordeum vulgare [2] was 0; in the experiment with Hordeum vulgare [19], 2 (6-15%). Moreover, the “herbicide rating, ALOMY” value is reported as 0 in the experiment on Alopecurus myosuroides [3] and 4 (30-44%) in the experiment on Alopecurus myosuroides [14]. Further, the “herbicide rating, SETVI” value in the experiment with Setaria viridis [4] is reported as 0; in the experiment on Setaria viridis [21], 8 (91-99%). In addition, the results for the “herbicide rating, ABUTH” value with Abutilon theophrasti [5] and with Abutilon theophrasti [13] were 0 and 6 (65-79%), respectively. For the same molecule, the “herbicide rating, AMARE” value with Amaranthus retroflexus [6] was 0; in the experiment with Amaranthus retroflexus [15] it was 5 (45-64%). The “herbicide rating, CHEAL” value is recorded as 2 (6-15%) with Chenopodium album [7] and 4 (30-44%) in the experiment with Chenopodium album [16]. Further, the “herbicide rating, GALAP” value with Galium aparine [8] is 0; with Galium aparine [17] it was 5 (45-64%). The “herbicide rating, HELAN” value in the experiment on Helianthus annuus [9] is listed as 3 (16-29%); in the experiment on Helianthus annuus [18], 8 (91-99%). In addition, the “herbicide rating, IPOHE” value is given as 1 (1-5%) in the experiment on Ipomoea hederacea [10] and 7 (80-90%) with Ipomoea hederacea [20]. For the same molecule, the “herbicide rating, VERPE” value in the experiment on Veronica persica [11] and with Veronica persica [23] was 7 (80-90%) each time. Besides, the “herbicide rating, ZEAMX” value is listed as 0 in the experiment on Zea mays [12] and 5 (45-64%) with Zea mays [24].
